Where two headings read alike, the source gives them in different places.
Columns and labels:
[1] = target: CYP 2C19 (Homo sapiens, UniProt P33261); assay: CYP inhibition, 2C19; assay type: in vitro ADME
[2] = target: T1, CYP 1A2 (Homo sapiens, UniProt P05177); assay: CYP inhibition, 1A2; assay type: in vitro ADME
T1 sequence (P05177 1-516): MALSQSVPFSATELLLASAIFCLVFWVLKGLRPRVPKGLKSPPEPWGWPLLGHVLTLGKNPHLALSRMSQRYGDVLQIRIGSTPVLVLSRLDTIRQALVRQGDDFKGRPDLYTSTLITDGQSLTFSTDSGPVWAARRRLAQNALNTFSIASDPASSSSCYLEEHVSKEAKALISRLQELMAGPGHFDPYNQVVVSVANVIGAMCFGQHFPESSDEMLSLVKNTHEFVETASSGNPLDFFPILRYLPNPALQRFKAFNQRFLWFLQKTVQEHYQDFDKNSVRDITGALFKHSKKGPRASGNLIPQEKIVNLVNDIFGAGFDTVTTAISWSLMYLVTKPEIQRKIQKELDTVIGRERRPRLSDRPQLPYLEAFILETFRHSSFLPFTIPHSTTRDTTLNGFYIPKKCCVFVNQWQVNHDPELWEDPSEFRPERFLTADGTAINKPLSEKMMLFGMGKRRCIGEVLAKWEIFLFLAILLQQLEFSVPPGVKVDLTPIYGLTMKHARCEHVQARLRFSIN

[3] = target: CYP 2D6 (Homo sapiens, UniProt P10635); assay: CYP inhibition, 2D6; assay type: in vitro ADME
Chain of CYP 2D6 (P10635 whole entry): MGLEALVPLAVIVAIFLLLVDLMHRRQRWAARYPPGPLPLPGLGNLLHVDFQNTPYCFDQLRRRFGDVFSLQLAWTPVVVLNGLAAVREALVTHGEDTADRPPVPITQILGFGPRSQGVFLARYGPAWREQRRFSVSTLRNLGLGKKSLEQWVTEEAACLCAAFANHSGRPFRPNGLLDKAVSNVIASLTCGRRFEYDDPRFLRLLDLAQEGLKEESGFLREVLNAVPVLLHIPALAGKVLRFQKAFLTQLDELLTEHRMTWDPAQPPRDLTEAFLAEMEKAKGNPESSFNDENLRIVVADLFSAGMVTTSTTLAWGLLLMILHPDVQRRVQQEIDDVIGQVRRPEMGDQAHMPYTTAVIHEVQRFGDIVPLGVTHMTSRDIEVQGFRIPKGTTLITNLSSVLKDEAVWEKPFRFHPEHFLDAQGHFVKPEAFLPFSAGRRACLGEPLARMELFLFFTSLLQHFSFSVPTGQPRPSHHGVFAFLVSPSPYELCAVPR

[4] = Ames mutagenesis assay; assay type: cell-based
[5] = test system: novel object recognition; assay: Novel object recognition (NOR) assay; assay type: in vivo; conditions: mice; for NOR - 60 minutes post training / NOR - 120 minutes post training: dose approx. ID75 in MK-801 hyperactivity assay
Description: Salts of the compounds were administered to mice at one hour post-training (a time-point at which animals normally behaviorally discriminate between novel and familiar objects) and two hours post-training (a time-point at which these animals normally no longer discriminate between objects). Doses were selected to correspond to the approximate ID75 value in the MK-801 hyperactivity assay.

[6] = test system: hyperactivity induced by amphetamine; assay: Amphetamine induced hyperactivity mouse model; assay type: in vivo; conditions: mice, salts of the compounds
Description: (§1) Five of the compounds listed in Table 2 were tested in an in vivo assay predictive of antipsychotic activity. Salts of these compounds where administered to mice having hyperactivity induced by amphetamine or MK-801 administration. The compounds were administered both subcutaneously (sc) and orally (po).

[7] = target: 5-HT2A receptor (Homo sapiens, UniProt P28223); assay: Receptor profile, 5-HT2A inverse agonism; assay type: cell-based; conditions: negative log of the inhibitory IC50 (inverse agonism); read-out: 5-HT2A pIEC50 (converted)
Chain of 5-HT2A receptor (P28223 whole entry): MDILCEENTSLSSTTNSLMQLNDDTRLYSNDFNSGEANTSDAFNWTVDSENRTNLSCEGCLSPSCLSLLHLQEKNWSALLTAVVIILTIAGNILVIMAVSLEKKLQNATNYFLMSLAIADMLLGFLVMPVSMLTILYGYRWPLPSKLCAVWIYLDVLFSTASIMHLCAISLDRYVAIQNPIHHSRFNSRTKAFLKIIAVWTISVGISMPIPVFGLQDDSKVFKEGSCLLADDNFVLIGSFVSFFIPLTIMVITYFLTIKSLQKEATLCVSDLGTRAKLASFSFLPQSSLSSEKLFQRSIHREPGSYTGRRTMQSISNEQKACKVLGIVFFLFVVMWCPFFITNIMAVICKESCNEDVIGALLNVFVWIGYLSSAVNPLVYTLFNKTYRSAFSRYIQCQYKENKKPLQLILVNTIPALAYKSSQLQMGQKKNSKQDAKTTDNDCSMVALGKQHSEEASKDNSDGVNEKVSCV

[8] = target: D2 receptor (Homo sapiens, UniProt P14416); assay: Receptor profile, D2 agonist activity; conditions: for Emax: read-out: D2 intrinsic activity %; for D2 intrinsic activity, in words: devoid of agonist activity
Chain of D2 receptor (P14416 whole entry): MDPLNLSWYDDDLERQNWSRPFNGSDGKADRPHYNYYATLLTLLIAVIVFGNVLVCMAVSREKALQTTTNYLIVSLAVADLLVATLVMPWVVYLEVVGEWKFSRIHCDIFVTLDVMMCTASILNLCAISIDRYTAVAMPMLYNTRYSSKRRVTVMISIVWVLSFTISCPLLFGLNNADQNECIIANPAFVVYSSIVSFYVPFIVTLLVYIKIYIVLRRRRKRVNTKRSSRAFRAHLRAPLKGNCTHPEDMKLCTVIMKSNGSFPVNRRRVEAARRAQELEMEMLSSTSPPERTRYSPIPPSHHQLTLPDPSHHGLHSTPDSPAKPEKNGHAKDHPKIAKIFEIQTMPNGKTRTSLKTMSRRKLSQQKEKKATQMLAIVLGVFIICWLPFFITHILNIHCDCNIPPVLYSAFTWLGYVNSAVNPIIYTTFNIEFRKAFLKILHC
Description: (§3) Intrinsic activity was normalized to carbachol (M1) or pergolide (D2). For those ligands devoid of agonist activity, the values shown are pKi determined using [3H]raclopride.

[9] = target: T2, M1 receptor (Homo sapiens, UniProt P11229); assay: Receptor profile, M1 agonist activity; conditions: for Emax: read-out: M1 intrinsic activity %
T2 sequence (P11229 1-460): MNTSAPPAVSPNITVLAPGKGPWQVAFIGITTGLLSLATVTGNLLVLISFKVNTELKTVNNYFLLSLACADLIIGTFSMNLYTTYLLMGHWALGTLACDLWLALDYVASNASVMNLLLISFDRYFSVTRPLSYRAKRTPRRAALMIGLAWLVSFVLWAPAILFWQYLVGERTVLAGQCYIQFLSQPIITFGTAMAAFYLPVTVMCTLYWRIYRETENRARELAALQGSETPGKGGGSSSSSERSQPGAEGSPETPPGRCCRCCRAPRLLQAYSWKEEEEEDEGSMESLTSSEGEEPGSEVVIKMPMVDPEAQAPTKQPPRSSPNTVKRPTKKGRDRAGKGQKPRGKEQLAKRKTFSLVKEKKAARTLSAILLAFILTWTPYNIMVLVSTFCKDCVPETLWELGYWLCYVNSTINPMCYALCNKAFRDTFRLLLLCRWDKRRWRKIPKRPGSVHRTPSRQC
Description: as §3

[10] = target: hERG (Homo sapiens, UniProt Q12809); assay: hERG assay
Chain of hERG (Q12809 whole entry): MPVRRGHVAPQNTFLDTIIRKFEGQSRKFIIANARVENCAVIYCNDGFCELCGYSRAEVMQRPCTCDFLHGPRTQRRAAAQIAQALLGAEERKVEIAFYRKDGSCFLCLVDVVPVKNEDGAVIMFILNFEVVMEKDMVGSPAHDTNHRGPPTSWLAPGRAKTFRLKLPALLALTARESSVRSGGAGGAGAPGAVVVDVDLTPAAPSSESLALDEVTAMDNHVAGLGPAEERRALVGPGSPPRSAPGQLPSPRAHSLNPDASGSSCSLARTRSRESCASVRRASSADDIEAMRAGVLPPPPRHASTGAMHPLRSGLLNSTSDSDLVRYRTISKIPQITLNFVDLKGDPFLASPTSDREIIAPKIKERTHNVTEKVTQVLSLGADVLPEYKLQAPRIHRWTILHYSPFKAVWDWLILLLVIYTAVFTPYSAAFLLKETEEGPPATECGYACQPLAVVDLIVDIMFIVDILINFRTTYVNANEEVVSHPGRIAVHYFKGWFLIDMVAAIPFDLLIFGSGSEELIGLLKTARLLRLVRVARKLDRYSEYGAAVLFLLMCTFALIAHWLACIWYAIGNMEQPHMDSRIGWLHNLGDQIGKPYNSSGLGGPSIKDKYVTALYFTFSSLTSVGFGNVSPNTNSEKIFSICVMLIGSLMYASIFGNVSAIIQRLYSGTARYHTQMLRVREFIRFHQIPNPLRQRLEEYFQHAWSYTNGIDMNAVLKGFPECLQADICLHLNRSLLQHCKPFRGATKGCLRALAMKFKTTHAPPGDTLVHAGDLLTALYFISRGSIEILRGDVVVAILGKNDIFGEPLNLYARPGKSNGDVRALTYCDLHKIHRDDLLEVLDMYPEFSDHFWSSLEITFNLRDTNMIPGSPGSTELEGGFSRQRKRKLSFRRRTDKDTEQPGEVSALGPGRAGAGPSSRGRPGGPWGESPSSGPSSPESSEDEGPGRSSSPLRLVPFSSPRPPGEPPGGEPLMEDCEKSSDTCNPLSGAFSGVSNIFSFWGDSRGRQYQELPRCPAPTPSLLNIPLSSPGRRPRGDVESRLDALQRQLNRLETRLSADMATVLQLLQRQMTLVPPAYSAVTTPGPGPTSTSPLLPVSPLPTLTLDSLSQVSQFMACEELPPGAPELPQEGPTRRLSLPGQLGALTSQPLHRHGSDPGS

[11] = target: CYP 3A4 (Homo sapiens, UniProt P08684); assay: biochemical
Chain of CYP 3A4 (P08684 whole entry): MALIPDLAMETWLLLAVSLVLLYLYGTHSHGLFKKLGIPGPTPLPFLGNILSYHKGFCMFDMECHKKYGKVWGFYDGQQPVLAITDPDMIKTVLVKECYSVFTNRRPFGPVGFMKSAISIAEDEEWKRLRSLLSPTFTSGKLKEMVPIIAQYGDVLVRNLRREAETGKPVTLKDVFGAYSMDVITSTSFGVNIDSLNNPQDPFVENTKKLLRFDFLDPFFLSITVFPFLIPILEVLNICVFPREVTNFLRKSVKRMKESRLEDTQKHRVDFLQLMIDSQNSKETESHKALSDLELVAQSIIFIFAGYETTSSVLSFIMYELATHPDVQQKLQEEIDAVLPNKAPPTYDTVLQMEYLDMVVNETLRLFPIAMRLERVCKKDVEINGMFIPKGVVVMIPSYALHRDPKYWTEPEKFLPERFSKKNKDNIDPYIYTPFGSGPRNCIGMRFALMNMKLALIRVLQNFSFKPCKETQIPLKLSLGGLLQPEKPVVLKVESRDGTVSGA
Description: The compounds listed in Table 4 were profiled in a panel of in vitro assays for assessment of cardiovascular (hERG), drug-drug interaction (CYP inhibition), and mutagenic (Ames) liability. Microsomal stability was also determined by measuring both rat and human microsomal clearance.

[12] = target: CYP 2C9 (Homo sapiens, UniProt P11712); assay: CYP inhibition, 2C9; assay type: in vitro ADME
Chain of CYP 2C9 (P11712 whole entry): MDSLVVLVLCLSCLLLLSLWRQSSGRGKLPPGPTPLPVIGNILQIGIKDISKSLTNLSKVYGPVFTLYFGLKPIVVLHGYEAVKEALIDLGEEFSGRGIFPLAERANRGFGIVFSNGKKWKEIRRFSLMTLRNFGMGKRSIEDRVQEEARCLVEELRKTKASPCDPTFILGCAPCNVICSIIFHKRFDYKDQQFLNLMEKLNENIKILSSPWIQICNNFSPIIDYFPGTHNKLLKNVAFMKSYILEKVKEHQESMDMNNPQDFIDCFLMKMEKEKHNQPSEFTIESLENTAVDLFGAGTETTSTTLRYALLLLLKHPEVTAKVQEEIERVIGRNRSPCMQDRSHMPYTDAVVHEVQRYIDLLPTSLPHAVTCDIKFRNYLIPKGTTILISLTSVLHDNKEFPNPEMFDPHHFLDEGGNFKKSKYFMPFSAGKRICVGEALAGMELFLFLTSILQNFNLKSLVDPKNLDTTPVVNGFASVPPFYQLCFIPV

[13] = test system: hyperactivity induced by MK-801; assay: MK-801 induced hyperactivity mouse model; assay type: in vivo; conditions: mice, salts of the compounds
Description: as §1

[14] = Rat microsomal clearance; assay type: in vitro ADME; conditions: rat microsomes
[15] = Human microsomal clearance; assay type: in vitro ADME; conditions: human microsomes
[16] = target: T3, muscarinic M2 receptor (Homo sapiens, UniProt P08172); assay: R-SAT functional screen, M2; assay type: cell-based; conditions: R-SAT; for Emax: read-out: M2 eff (efficacy); for EC50: read-out: M2 pEC50 (converted)
T3 construct: expressed in transfected cells
T3 sequence (P08172 1-466): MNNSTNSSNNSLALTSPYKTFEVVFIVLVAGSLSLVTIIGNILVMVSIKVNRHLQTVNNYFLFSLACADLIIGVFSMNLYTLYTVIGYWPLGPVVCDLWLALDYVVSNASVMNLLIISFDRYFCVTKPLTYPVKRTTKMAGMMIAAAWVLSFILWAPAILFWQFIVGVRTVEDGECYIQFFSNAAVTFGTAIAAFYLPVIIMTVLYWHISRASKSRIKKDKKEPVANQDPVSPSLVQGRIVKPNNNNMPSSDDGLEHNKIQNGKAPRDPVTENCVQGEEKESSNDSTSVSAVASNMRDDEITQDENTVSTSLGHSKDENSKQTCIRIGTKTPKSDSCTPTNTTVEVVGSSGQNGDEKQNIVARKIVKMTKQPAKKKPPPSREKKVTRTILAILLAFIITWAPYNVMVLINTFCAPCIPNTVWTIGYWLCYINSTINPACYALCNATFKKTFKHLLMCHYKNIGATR
Outline: (§2)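 Receptor Selection and Amplification Technology (R-SAT) functional cell assay at M1, M2, M3 receptors. Values reported as efficacy (eff) and potency as pEC50.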

[17] = target: T4, muscarinic M1 receptor (Homo sapiens, UniProt P11229); assay: R-SAT functional screen, M1; assay type: cell-based; conditions: R-SAT
T4 construct: expressed in transfected cells
T4 sequence (P11229 1-460): T2 sequence (P11229 1-460)
Outline: as §2

[18] = target: T5, muscarinic M3 receptor (Homo sapiens, UniProt P20309); assay: R-SAT functional screen, M3; assay type: cell-based
T5 construct: expressed in transfected cells
T5 sequence (P20309 whole entry): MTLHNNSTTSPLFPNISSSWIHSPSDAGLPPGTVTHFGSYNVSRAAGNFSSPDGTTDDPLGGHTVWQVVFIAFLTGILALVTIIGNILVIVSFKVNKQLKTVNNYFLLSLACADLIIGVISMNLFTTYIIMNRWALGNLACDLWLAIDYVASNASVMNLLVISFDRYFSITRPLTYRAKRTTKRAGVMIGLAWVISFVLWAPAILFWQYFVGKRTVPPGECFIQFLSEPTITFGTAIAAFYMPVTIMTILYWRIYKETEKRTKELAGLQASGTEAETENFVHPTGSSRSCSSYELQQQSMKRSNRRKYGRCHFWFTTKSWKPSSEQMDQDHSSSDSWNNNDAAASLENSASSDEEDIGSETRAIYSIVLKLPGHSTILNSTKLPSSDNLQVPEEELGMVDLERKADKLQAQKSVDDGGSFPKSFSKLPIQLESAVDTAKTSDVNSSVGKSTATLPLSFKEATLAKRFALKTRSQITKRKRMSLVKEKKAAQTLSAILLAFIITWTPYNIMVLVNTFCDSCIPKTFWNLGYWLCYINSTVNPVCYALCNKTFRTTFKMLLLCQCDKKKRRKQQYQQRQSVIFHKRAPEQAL
Description: The term “modulate” refers to the ability of a compound disclosed herein to alter the function of a muscarinic receptor. A modulator may activate the activity of a muscarinic receptor, may activate or inhibit the activity of a muscarinic receptor depending on the concentration of the compound exposed to the muscarinic receptor, or may inhibit the activity of a muscarinic receptor. The term “modulate” also refers to altering the function of a muscarinic receptor by increasing or decreasing the probability that a complex forms between a muscarinic receptor and a natural binding partner. A modulator may increase the probability that such a complex forms between the muscarinic receptor and the natural binding partner, may increase or decrease the probability that a complex forms between the muscarinic receptor and the natural binding partner depending on the concentration of the compound exposed to the muscarinic receptor, and or may decrease the probability that a complex forms between the muscarinic receptor and the natural binding partner. In some embodiments, modulation of the muscarinic receptor may be assessed using Receptor Selection and Amplification Technology (R-SAT) as described in U.S. Pat. No. 5,707,798, the disclosure of which is incorporated herein by reference in its entirety.
Several compounds disclosed herein were evaluated for activity at muscarinic receptors using Receptor Selection and Amplification Technology (R-SAT) as described in U.S. Pat. No. 5,707,798, the disclosure of which is incorporated herein by reference in its entirety. The efficacy (eff) and potency (expressed as pEC50) of these compounds are presented in Table 1 at M1, M2, and M3 receptors.

Chain of CYP 2C19 (P33261 whole entry): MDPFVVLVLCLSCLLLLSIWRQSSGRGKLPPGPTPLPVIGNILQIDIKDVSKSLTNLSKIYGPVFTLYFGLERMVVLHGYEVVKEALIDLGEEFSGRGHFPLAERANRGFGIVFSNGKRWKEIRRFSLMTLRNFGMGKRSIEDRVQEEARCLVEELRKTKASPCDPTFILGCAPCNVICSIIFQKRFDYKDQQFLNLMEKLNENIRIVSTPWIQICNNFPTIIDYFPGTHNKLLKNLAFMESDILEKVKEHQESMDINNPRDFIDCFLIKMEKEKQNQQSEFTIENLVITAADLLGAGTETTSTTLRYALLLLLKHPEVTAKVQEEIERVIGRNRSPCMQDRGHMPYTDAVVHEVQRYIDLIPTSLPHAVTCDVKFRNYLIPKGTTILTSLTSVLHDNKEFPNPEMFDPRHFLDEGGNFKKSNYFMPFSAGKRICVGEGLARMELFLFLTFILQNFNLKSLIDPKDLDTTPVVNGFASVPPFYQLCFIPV

Clc1ccc2c(c1)N=C(N1CCNCC1)c1ccccc1C2 [3-Chloro-6-piperazin-1-yl-11H-dibenzo[b,e]azepine]
IC50 [1]: > 10000 nM
IC50 [2]: > 10000 nM
IC50 [3]: > 10000 nM
Ames ([4]; to 10 μM (cytotoxicity precluded evaluation of all concentrations)): Neg.
NOR Interpretation [5]: no effect
NOR - 60 minutes post training [5]: retained
NOR - 120 minutes post training [5]: not retained
Amphetamine model (ID50 mg/kg po) [6]: 2.8 mg/kg
Amphetamine model (ID50 mg/kg sc) [6]: 3.6 mg/kg
IC50 [7]: 31.6 nM
EC50 [8]: 12.6 nM
Emax [8]: 33%
EC50 [9]: 100 nM
Emax [9]: 62%
IC50 [10]: 1200 nM
IC50 [11]: ~4000 nM
IC50 [12]: > 10000 nM
MK-801 model (ID50 mg/kg po) [13]: 1.6 mg/kg
MK-801 model (ID50 mg/kg sc) [13]: 0.7 mg/kg
microsomal CLint [14]: 383 µL/min/mg
microsomal CLint [15]: 21 µL/min/mg
Emax [16]: 113%
EC50 [16]: 1260 nM

Cc1cccc2c1Oc1ccc(C(F)(F)F)cc1N=C2N1CCNCC1 [4-Methyl-11-(piperazin-1-yl)-8-trifluoromethyl-dibenzo[b,f][1,4]oxazepine]
IC50 [7]: 2510 nM
D2 intrinsic activity, in words [8]: antagonist
EC50 [9]: 316 nM
Emax [9]: 52%
MK-801 model (ID50 mg/kg sc) [13]: >10 mg/kg
Emax [16]: 75%
EC50 [16]: 794 nM

Brc1ccc2c(c1)N=C(N1CCNCC1)c1ccccc1O2 [8-Bromo-11-(piperazin-1-yl)-dibenzo[b,f][1,4]oxazepine]
IC50 [7]: 25.1 nM
EC50 [8]: 50.1 nM
Emax [8]: 34%
EC50 [9]: 398 nM
Emax [9]: 36%
Emax [16]: 70%
EC50 [16]: 1260 nM

Cc1cccc2c1Oc1ccc(Cl)cc1N=C2N1CCNCC1 [8-Chloro-4-methyl-11-(piperazin-1-yl)-dibenzo[b,f][1,4]oxazepine]
IC50 [1]: > 10000 nM
IC50 [2]: 1800 nM
IC50 [3]: > 10000 nM
Ames ([4]; to 5 μM (cytotoxicity precluded evaluation of all concentrations)): Neg.
NOR Interpretation [5]: procognitive
NOR - 60 minutes post training [5]: retained
NOR - 120 minutes post training [5]: retained
Amphetamine model (ID50 mg/kg po) [6]: >10 mg/kg
Amphetamine model (ID50 mg/kg sc) [6]: 3.4 mg/kg
IC50 [7]: 31.6 nM
D2 intrinsic activity, in words [8]: antagonist
EC50 [9]: 200 nM
Emax [9]: 71%
IC50 [10]: 2000 nM
IC50 [11]: 1800 nM
IC50 [12]: > 10000 nM
MK-801 model (ID50 mg/kg po) [13]: 1.9 mg/kg
MK-801 model (ID50 mg/kg sc) [13]: 0.5 mg/kg
microsomal CLint [14]: 27 µL/min/mg
microsomal CLint [15]: 16 µL/min/mg
Emax [16]: 71%
EC50 [16]: 631 nM

CC1CN(C2=Nc3cc(Cl)ccc3Nc3ccccc32)CCN1 (stereo not shown) [8-Chloro-11-(3-methyl-piperazin-1-yl)-5H-dibenzo[b,e][1,4]diazepine]
Emax ([17]; read-out: M1 eff (efficacy)): 28%
EC50 ([17]; read-out: M1 pEC50 (converted)): 100 nM
M3 eff (efficacy) [18]: 19
Emax [16]: 159%
EC50 [16]: 1580 nM

Fc1ccc2c(c1)N=C(N1CCNCC1)c1ccccc1O2 [8-Fluoro-11-(piperazin-1-yl)-dibenzo[b,f][1,4]oxazepine]
IC50 [7]: 501 nM
EC50 [8]: 15.8 nM
Emax [8]: 73%
EC50 [9]: 316 nM
Emax [9]: 39%
Emax [16]: 48%
EC50 [16]: 2510 nM

Clc1ccc2c(c1)N=C(N1CCNCC1)c1ccccc1N2 [N-desmethylclozapine, reference compound]
Ames [4]: Neg.
NOR Interpretation [5]: no effect
NOR - 60 minutes post training [5]: retained
NOR - 120 minutes post training [5]: not retained
Amphetamine model (ID50 mg/kg po) [6]: >10 mg/kg
Amphetamine model (ID50 mg/kg sc) [6]: 5.2 mg/kg
MK-801 model (ID50 mg/kg po) [13]: 1.5 mg/kg
MK-801 model (ID50 mg/kg sc) [13]: 3.5 mg/kg

— patent publication US20090239840A1, “AMINO SUBSTITUTED DIARYL[a,d]CYCLOHEPTENE ANALOGS AS [sequence] AGONISTS AND METHODS OF TREATMENT OF NEUROPSYCHIATRIC DISORDERS” (ACADIA PHARMACEUTICALS, INC., priority 2003, published 2009)
